Source: patent US20100178700A1, “NOVEL THYMIC CELLULAR POPULATIONS AND USES THEREOF” (priority 2007, published 2010)
“Also recorded” adds a separate entry of the source. Read-outs that look alike come from different tables or passages of the source.

Assays:
[1] = system: Aire; experiment: Aire expression in mTEC during thymic recovery
From the text: Primary antibodies and lectins used were FITC-conjugated UEA-1 lectin (Silenus?), Ki67 (BD), PE-conjugated Ly51 (clone 6C3, Pharmingen) Ki67 (BD), I-A/I-E (BD), CD45 (LCA)(BD), PerCP Cy5.5 conjugated CD45 (BD), APC-conjugated I-A/I-E (Miltenyi), biotinylated CD31 (BD), and EpCAM (G8.8a, prepared in-house from a clone kindly donated by Dr. A. Fan) MTS15 hybridoma supernatant (prepared in-house), rat anti-mouse Aire (a kind gift from Dr. H. Scott). Secondary reagents used were FITC-conjugated anti-rat IgG2c, Streptavidin PerCPCy5.5 and Streptavidin APC.
Antibodies and conjugates were obtained from BD Pharmingen (USA) unless otherwise indicated. […] Secondary antibodies used were anti-rat IgG2c (Southern Biotech, USA), anti-rat IgG2a (Southern Biotech, USA) Streptavidin PerCP Cy5.5 and Streptavidin APC, anti-rabbit IgG-Alexa 488 (Invitrogen, USA).

[2] = system: thymic epithelial cells; experiment: Thymic epithelial cell (TEC) subsets by flow cytometry after drug-induced thymic damage; details: for effect on TEC subsets: mice, i.p. treatment
Protocol: (§1) Control mice were injected with the same volume of PBS.
Control mice were given PBS alone.
(§2) Mice were given either 20 mg/kg Dexamethasone (Lyppards, Australia) or the equivalent volume of PBS as a single i.p. injection.
(§3) In all experiments, the final day of treatment was designated as Day 0. Mice were then humanely killed by CO2 asphyxiation at various timepoints.
(§4) Each thymus was thoroughly cleaned of fat and connective tissue and its capsule nicked with fine scissors. Each thymus was then incubated at 37° C. for 10 minutes in 2 mL of 0.125% (w/v) Collagenase D with 500 μL of 0.1% (w/v) DNAse I (both from Roche, Germany) in RPMI-1640, with regular agitation. The supernatant was collected, kept on ice, and the digestion repeated using the remaining settled thymic fragments. After 3 digestions, the remaining aggregates were incubated for 10 minutes with 1 mL of 0.125% (w/v) Collagenase/Dispase (Roche, Germany) with 500 μL 0.1% (w/v) DNAse I in RPMI-1640. Cells from all supernatant fractions were then pooled and centrifuged at 472 gmax for 5 minutes, then resuspended in cold EDTA/FACS buffer (5 mM EDTA in PBS with 2% FCS and 0.02% NaN3). Cells were filtered through 100 μm mesh. Cell counts were performed using a Z2 Coulter Counter (Beckman Coulter USA).
(§5) Cells were washed in cold EDTA/FACS buffer and 5×10^6 cells dispensed into 96 well round-bottom plates, Cells were suspended in 50 μL of a primary mAb (hybridoma supernatant or suboptimal dilution of purified antibody) or conjugate for 15 minutes at 4° C. in the dark, followed by a wash step (200 μL EDTA/FACS buffer, 1300 rpm centrifuge for 3 minutes). Secondary mAb were then added and incubated and cells were washed twice. For intracellular staining, cells were washed once in cold PBS then fixed and permeabilised using the BD Cytofix/Cytoperm kit (BD Biosciences, USA) according to the manufacturer's instructions. Cells were stained with 50 μL of primary antibody diluted in PermWash buffer for 30 mins, then washed in PermWash buffer and incubated with secondary antibody where required. Cells were washed in PermWash, then finally washed in FACS buffer, before being resuspended in 200 μL of FACS or EDTA/FACS buffer for acquisition.
(§6) A FACScalibur and CellQuest software (BD Biosciences, USA) were used for flow cytometric analysis, using four fluorescent channels (FL1 for FITC, FL2 for PE, FL3 for CyChrome/PECy5, PerCP and PI, and FL4 for APC). All compensations were performed on single colour labelling of an appropriate cell sample containing both positive and negative populations. Exclusion of non-viable and haemopoietic cells was based on forward light scatter versus side light scatter and CD45 expression respectively.
(§7) In all experiments, the final day of treatment was designated as Day 0. Mice were then humanely killed by CO2 asphyxiation at indicated timepoints.
(§8) Briefly, thymi were agitated in RPMI-1640 to flush out thymocytes. After collecting supernatant, thymic fragments were incubated individually at 37° C. for 10 minutes in 2 mL of 0.125% (w/v) Collagenase D with 500 μL of 0.1% (w/v) DNAse I (both from Roche, Germany) in RPMI-1640, with regular agitation. The supernatant was collected, kept on ice, and the digestion repeated three times, followed by a final 10 minute digestion in 1 mL of 0.125% (w/v) Collagenase/Dispase (Roche, Germany) with 500 μL 0.1% (w/v) DNAse I in RPMI-1640. The supernatant fractions were then pooled and centrifuged, keeping each thymus separate, at 472 gmax for 5 minutes, and resuspended in cold EDTA/FACS buffer (5 mM EDTA in PBS with 2% FCS and 0.02% Sodium Azide). Cells were filtered through 100 μm mesh. Cell counts were performed using a Z2 Coulter Counter (Beckman Coulter USA).

[3] = system: thymocytes; experiment: Thymus cellularity and thymocyte subsets after drug-induced thymus depletion; details: mice, i.p. treatment
Protocol: (§9) Male and female C57B16 mice aged at 4-8 weeks were obtained from Monash Animal Services and housed under SPF conditions.
as §1
Control mice were given PBS alone.
as §2, §3, §4
(§10) Male and female C57B1/6J (B6) mice aged at 8-12 weeks were obtained from Monash Animal Services and housed under SPF conditions, in accordance with institutional guidelines.
as §7, §8

[4] = system: thymic epithelial cells; details: mouse, in vivo
Protocol: as §1
Control mice were given PBS alone.
as §2, §3, §4, §5, §6, §7, §8

[5] = system: thymocytes; details: mouse, in vivo
Protocol: as §9, §1
Control mice were given PBS alone.
as §2, §3, §4, §10, §7, §8

[6] = days after cessation of treatment

## O=P1(N(CCCl)CCCl)NCCCO1 (centres unmarked) [Cyclophosphamide]
[1]; by treatment
  effect on Aire expression: almost completely abrogated
[2]; [6]
  recovery of mTEC-lo cells to normal / untreated levels: ≤ 28 days
  return of TEC subsets to normal / homeostatic proportions: 28 days
[2]
  effect on TEC subsets: mTEC-Hi were proportionally the major subset effected; also recorded: ablated all TEC subsets
[2]; listed as cyclophosphamide
  effect on TEC subsets: TEC as a population are significantly reduced
[2]; mouse, in vivo
  effect on non-TEC stromal cells: not effected
[3]
  effect on all thymocyte subsets: marked reduction in all thymocyte subsets
  effect on thymic cellularity / thymic involution: severe thymic involution; also recorded: greatest impact on thymic cellularity

## C[C@@H]1C[C@H]2[C@@H]3CCC4=CC(=O)C=C[C@]4(C)[C@@]3(F)[C@@H](O)C[C@]2(C)[C@@]1(O)C(=O)CO [Dexamethasone]
[4]
  recovery of mTEC-hi: ≤ 14 days
  return of TEC subsets to normal / homeostatic proportions: ≤ 28 days
  return of cTEC to normal levels / homeostasis: ≤ 7 days
[1]; mouse, in vivo
  effect on Aire expression: almost completely abrogated
[5]
  return of thymic cellularity to untreated levels: ≤ 14 days
[5]; ip
  effect on all thymocyte subsets: marked reduction in all thymocyte subsets
